Assay results: US10065990B2, “Cyclic peptide compound, and preparation method, pharmaceutical composition and use thereof” (HANGZHOU GUANYU BIO-MEDICAL CO., LTD, priority 2013, dated 2018)
Where two headings read alike, the source gives them in different places.

How the values were obtained:
[1] = system: N-87 (human gastric cancer cells); assay: MTT cancer cell growth inhibition; format: cell-based; conditions: Homo sapiens, 72 h, MTT, 72 hours incubation, N-87 cells; read-out: GI50 N-87
Description: (§1) MTT assay principle is yellow MTT can penetrate membrane into the cell, succinic dehydrogenase of the mitochondria in living cells can make exogenous MTT reduction of insoluble in water of blue-violet acicular formazan for crystallization and deposition in the cell, crystallization can be dissolved dimethyl sulfoxide (DMSO) solution, detected its absorbance at 490 nm/570 nm wavelength by enzyme-linked immunosorbent assay, which can reflect the number of cells.
(§2) Using DMEM+10% FBS culture medium or using 1640+10% FBS culture, respectively.
(§3) a) Cells were seeded in 96-well plates with the inoculation of 1500/well, 190 μl/hole, 37° C., 5% of CO2 incubator overnight;
(§4) b) The next day each well was added 10 μl of different drugs. The final concentration of drug was 10^−5˜10^−10M, three parallel holes; 37° C., 5% CO2 culture incubator for 72 hours incubation;
(§5) c) Per well was added 20 μl 5 mg/ml of MTT, 37° C., 5% CO2 culture incubator for 4 hours incubation;
(§6) d) The supernatant was discarded. Each well was added 100 μl of DMSO and oscillation;
(§7) e) 570 nm readings. Calculate cell viability. GI50 calculation based on the results.

[2] = system: MDA-MB-231 (breast cancer cells); assay: MTT cancer cell growth inhibition; format: cell-based; conditions: Homo sapiens, MDA-MB-231, 72 h, read-out: GI50 MDA-MB-231, MTT, 72 hours incubation, MDA-MB-231 cells
Description: as §1, §2, §3, §4, §5, §6, §7

[3] = system: Bel-7402 (human hepatoma cells); assay: MTT cancer cell growth inhibition; format: cell-based; conditions: MTT, 72 hours incubation, Bel-7402 cells, read-out: GI50 Bel-7402
Description: as §1, §2, §3, §4, §5, §6, §7

[4] = system: PANC-1 (Pac-1, human pancreatic cancer cells); assay: MTT cancer cell growth inhibition; format: cell-based; conditions: Homo sapiens, PANC-1, 72 h, PANC-1 cells, MTT, 72 hours incubation; read-out: GI50 PAN
Description: as §1, §2, §3, §4, §5, §6, §7

[5] = system: DU145 (human prostate cancer cells); assay: MTT cancer cell growth inhibition; format: cell-based; conditions: Homo sapiens, DU-145, 72 h, DU145 cells, MTT, 72 hours incubation; read-out: GI50 Du1
Description: as §1, §2, §3, §4, §5, §6, §7

[6] = system: KBM5-T315I (human chronic myelogenous leukemia); assay: MTT cancer cell growth inhibition; format: cell-based; conditions: MTT, 72 hours incubation, KBM5-T315I cells, read-out: GI50 KBM5-T315I
Description: as §1, §2, §3, §4, §5, §6, §7

[7] = system: Huh-7 (human hepatoma cells); assay: MTT cancer cell growth inhibition; format: cell-based; conditions: Homo sapiens, Huh-7, 72 h, MTT, 72 hours incubation, Huh-7 cells; read-out: GI50 Huh-7
Description: as §1, §2, §3, §4, §5, §6, §7

[8] = system: Hela (human cervical cancer cells); assay: MTT cancer cell growth inhibition; format: cell-based; conditions: Hela cells, MTT, 72 hours incubation, read-out: GI50 Hela
Description: as §1, §2, §3, §4, §5, §6, §7

[9] = system: HT1080 (human fibrosarcoma cells); assay: MTT cancer cell growth inhibition; format: cell-based; conditions: HT1080 cells, MTT, 72 hours incubation, read-out: GI50 HT1
Description: as §1, §2, §3, §4, §5, §6, §7

[10] = system: U937 (human leukemia cells); assay: MTT cancer cell growth inhibition; format: cell-based; conditions: Homo sapiens, U-937, 72 h, U937 cells, MTT, 72 hours incubation; read-out: GI50 U93
Description: as §1, §2, §3, §4, §5, §6, §7

[11] = system: BGC-823 (human gastric cancer cells); assay: MTT cancer cell growth inhibition; format: cell-based; conditions: Homo sapiens, BGC-823, 72 h, BGC-823 cells, MTT, 72 hours incubation; read-out: GI50 BG
Description: as §1, §2, §3, §4, §5, §6, §7

[12] = system: A549 (human lung cancer cells); assay: MTT cancer cell growth inhibition; format: cell-based; conditions: A549 cells, MTT, 72 hours incubation, read-out: GI50 A54
Description: as §1, §2, §3, §4, §5, §6, §7

[13] = system: MOLT-4 (human acute lymphoblastic leukemia cells); assay: MTT cancer cell growth inhibition; format: cell-based; conditions: Homo sapiens, MOLT-4, 72 h, MOLT-4 cells, MTT, 72 hours incubation; read-out: GI50 Mol
Description: as §1, §2, §3, §4, §5, §6, §7

[14] = system: K562 (human leukemia cells); assay: MTT cancer cell growth inhibition; format: cell-based; conditions: Homo sapiens, K562, 72 h, MTT, 72 hours incubation, K562 cells; read-out: GI50 K562
Description: as §1, §2, §3, §4, §5, §6, §7

[15] = system: KBM-5 (human chronic myelogenous leukemia); assay: MTT cancer cell growth inhibition; format: cell-based; conditions: Homo sapiens, KBM5, 72 h, MTT, 72 hours incubation, KBM-5 cells; read-out: GI50 KBM-5
Description: as §1, §2, §3, §4, §5, §6, §7

[16] = system: MCF-7 (human breast cancer cells); assay: MTT cancer cell growth inhibition; format: cell-based; conditions: Homo sapiens, MCF7, 72 h, MCF-7 cells, 72 hours incubation, read-out: GI50 MCF
Description: as §1, §2, §3, §4, §5, §6, §7

[17] = system: lncap (prostate cancer cells); assay: MTT cancer cell growth inhibition; format: cell-based; conditions: Homo sapiens, LNCaP, 72 h, lncap cells, MTT, 72 hours incubation; read-out: GI50 lnca
Description: as §1, §2, §3, §4, §5, §6, §7

[18] = system: HCC827 (human non-small cell lung cancer cells); assay: MTT cancer cell growth inhibition; format: cell-based; conditions: MTT, 72 hours incubation, HCC827 cells, read-out: GI50 HCC827
Description: as §1, §2, §3, §4, §5, §6, §7

[19] = system: SGC-7901 (human gastric cancer cells); assay: MTT cancer cell growth inhibition; format: cell-based; conditions: Homo sapiens, SGC-7901, 72 h, MTT, 72 hours incubation, SGC-7901 cells; read-out: GI50 SGC-7901
Description: as §1, §2, §3, §4, §5, §6, §7

[20] = system: H1975 (non-small cell lung adenocarcinoma); assay: MTT cancer cell growth inhibition; format: cell-based; conditions: MTT, 72 hours incubation, H1975 cells, read-out: GI50 H1975
Description: as §1, §2, §3, §4, §5, §6, §7

HDAC7 = target: T1, HDAC7 (Homo sapiens, UniProt Q8WUI4); assay: HDAC biochemical activity measurement (fluorescent substrate deacetylation);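 for all read-outs here: fluorogenic deacetylation assay using acetyl-lysine substrate at 20 µM, enzyme and compound incubated 30 min at 37 °C, then developer added, fluorescence read at 360/460 nm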; conditions: for IC50 HDAC7: 37° C. 30 minutes
T1 sequence (Q8WUI4 1-952): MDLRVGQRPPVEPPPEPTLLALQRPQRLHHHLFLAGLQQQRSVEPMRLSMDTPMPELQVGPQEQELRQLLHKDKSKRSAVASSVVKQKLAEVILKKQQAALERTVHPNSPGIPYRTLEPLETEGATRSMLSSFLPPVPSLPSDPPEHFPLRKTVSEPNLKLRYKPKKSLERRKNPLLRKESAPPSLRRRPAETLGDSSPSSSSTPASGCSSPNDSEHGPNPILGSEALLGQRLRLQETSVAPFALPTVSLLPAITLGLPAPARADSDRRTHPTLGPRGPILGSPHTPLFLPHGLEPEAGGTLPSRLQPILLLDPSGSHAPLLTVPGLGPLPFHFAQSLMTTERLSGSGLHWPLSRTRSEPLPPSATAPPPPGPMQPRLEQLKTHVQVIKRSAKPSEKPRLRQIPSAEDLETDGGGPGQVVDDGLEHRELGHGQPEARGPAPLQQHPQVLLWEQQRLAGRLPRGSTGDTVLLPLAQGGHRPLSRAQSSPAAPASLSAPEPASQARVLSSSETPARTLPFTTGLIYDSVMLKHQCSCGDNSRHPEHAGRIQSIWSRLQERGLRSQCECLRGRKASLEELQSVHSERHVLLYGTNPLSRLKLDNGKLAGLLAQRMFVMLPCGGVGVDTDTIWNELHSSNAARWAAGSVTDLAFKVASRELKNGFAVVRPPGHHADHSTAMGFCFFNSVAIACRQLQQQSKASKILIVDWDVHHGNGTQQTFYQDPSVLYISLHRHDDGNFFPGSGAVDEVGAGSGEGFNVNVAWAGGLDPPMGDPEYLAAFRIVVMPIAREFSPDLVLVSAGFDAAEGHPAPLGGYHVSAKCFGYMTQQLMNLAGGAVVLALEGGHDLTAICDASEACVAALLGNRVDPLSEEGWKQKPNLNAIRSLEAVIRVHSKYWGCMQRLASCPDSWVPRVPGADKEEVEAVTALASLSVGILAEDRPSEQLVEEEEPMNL

Row | GI50 [1] | GI50 [2] | GI50 ([3]; Homo sapiens, Bel-7402, 72 h) | GI50 [4] | GI50 [5] | GI50 ([6]; Homo sapiens, 72 h) | GI50 [7] | GI50 ([8]; Homo sapiens, HeLa, 72 h) | GI50 ([9]; Homo sapiens, HT-1080, 72 h) | GI50 [10] | GI50 [11] | GI50 ([12]; Homo sapiens, A549, 72 h) | GI50 [13] | GI50 [14] | GI50 [15] | GI50 [16] | GI50 [17] | GI50 ([18]; Homo sapiens, HCC827, 72 h) | GI50 [19] | GI50 ([20]; Homo sapiens, NCI-H1975, 72 h) | Structure (SMILES) | also measured
1 | 67 nM | 42 nM | 79 nM | 60 nM | 70 nM | 81 nM | 26 nM | 50 nM | 40 nM | 40 nM | 30 nM | 50 nM | 90 nM | 81 nM | 72 nM | 20 nM | 50 nM | 76 nM | 35 nM | 90 nM | C/C=C1\NC(=O)c2ccc(SCC)c(n2)CNC(=O)C[C@@H](/C=C/CCSC(=O)CCCCCC)OC(=O)[C@H](C(C)C)NC1=O [Compound 252] | IC50 (μM) HDAC7 (HDAC7): no activity
2 | 35 nM | 69 nM | 87 nM | 60 nM | 20 nM | 78 nM | 72 nM | 50 nM | 50 nM | 30 nM | 50 nM | 30 nM | 80 nM | 11 nM | 16 nM | 60 nM | 20 nM | 37 nM | 18 nM | 57 nM | C/C=C1\NC(=O)c2nc(ccc2SCC)CNC(=O)C[C@@H](/C=C/CCSC(=O)CCCCC)OC(=O)[C@H](C(C)C)NC1=O [Compound 253] | IC50 (μM) HDAC7 (HDAC7): no activity
3 | 26 nM | 71 nM |  | 30 nM | 30 nM |  | 71 nM |  |  | 50 nM | 30 nM |  | 50 nM | 36 nM | 28 nM | 60 nM | 80 nM |  | 44 nM |  | C/C=C1\NC(=O)c2ccc(SC)c(n2)CNC(=O)C[C@@H](/C=C/CCSC(C)=O)OC(=O)[C@H](C)NC1=O [Compound 185] | GI50 [3]: 91 nM; GI50 [6]: 13 nM; GI50 [8]: 50 nM; GI50 [9]: 50 nM; GI50 [12]: 10 nM; GI50 [18]: 82 nM; GI50 [20]: 12 nM; IC50 HDAC7 (HDAC7): no activity

Second part, the compound before the results:

Row | Structure (SMILES) | GI50 [1] | GI50 [2] | GI50 ([3]; Homo sapiens, Bel-7402, 72 h) | GI50 [4] | GI50 [5] | GI50 ([6]; Homo sapiens, 72 h) | GI50 [7] | GI50 ([8]; Homo sapiens, HeLa, 72 h) | GI50 ([9]; Homo sapiens, HT-1080, 72 h) | GI50 [10] | GI50 [11] | GI50 ([12]; Homo sapiens, A549, 72 h) | GI50 [13] | GI50 [14] | GI50 [15] | GI50 [16] | GI50 [17] | GI50 ([18]; Homo sapiens, HCC827, 72 h) | GI50 [19] | GI50 ([20]; Homo sapiens, NCI-H1975, 72 h) | also measured
4 | C/C=C1\NC(=O)c2cc(SC)cc(n2)CNC(=O)C[C@@H](/C=C/CCSC(C)=O)OC(=O)[C@@H](C)NC1=O [Compound 221] | 65 nM | 43 nM | 57 nM | 50 nM | 50 nM | 41 nM | 41 nM | 30 nM | 80 nM | 70 nM | 50 nM | 20 nM | 70 nM | 74 nM | 36 nM | 80 nM | 20 nM | 41 nM | 26 nM | 35 nM | IC50 HDAC7 (HDAC7): no activity
5 | C/C=C1\NC(=O)c2ccc(SC)c(n2)CNC(=O)C[C@@H](/C=C/CCS)OC(=O)[C@H](CC)NC1=O [Compound 231] | 36 nM | 25 nM | 58 nM | 10 nM | 50 nM | 57 nM | 48 nM | 40 nM | 30 nM | 80 nM | 10 nM | 60 nM | 50 nM | 37 nM | 38 nM | 80 nM | 30 nM | 77 nM | 11 nM | 25 nM | IC50 HDAC7 (HDAC7): no activity
